Test results: patent publication US20250339425A1 (Northeastern University, priority 2024, published 2025)
Where two headings read alike, the source gives them in different places.

Legend:
[1] = tested on: BzATP-induced release of IL-1β by human monocytic THP-1 cells; assay: BzATP-induced release of IL-1β by LPS-primed monocytic THP-1 cells (ELISA); details: for inhibition of BzATP-induced release of IL-1β: LPS-primed THP-1 cells, ACh at 10 μM
Protocol: Monocytic THP-1 cells were primed with lipopolysaccharide (LPS; 1 μg/ml, 5 hours). Thereafter, the P2X7 receptor agonist BzATP (100 μM) was added for another 40 minutes to trigger IL-1β release. […] The IL-1β concentrations obtained after stimulation with BzATP+solvent were set to 100% and all other values were calculated accordingly. Data are presented as individual data points, the bar represents the median, and whiskers encompass the 25th to 75th percentile. *p≤0.05, different from LPS-primed cells stimulated with BzATP alone. Friedman test followed by the Wilcoxon signed-rank test.
The new compounds were tested for the ability to down-regulate the ATP-mediated release of 10 IL-1β by human monocytic THP-1 cells.
Monocytic THP-1 cells were primed with lipopolysaccharide (LPS, 1 μg/ml) for 5 hours and further stimulated them with BzATP (100 μg/ml) for 40 minutes to induce the maturation and release of IL-1β.
The monocytic THP-1 cell line was obtained from the German Collection of Microorganisms and Cell Cultures (Braunschweig, Germany). […] Thereafter, 0.5×10^6 cells/0.5 ml and per well were seeded in 48-well plates (Greiner Bio-One, Frickenhausen, Germany) as described previously.^27 The cells were primed with LPS (1 μg/ml; E. coli O26:B6, Merck, Darmstadt, Germany, Cat #L2654) for 5 h under 5% CO2 atmosphere at 37° C. […] After the treatment, cells were spun down (500 g, 8 min, 4° C.) to collect the cell-free supernatants, that were stored at −20° C. for later measurements of IL-1β and lactate dehydrogenase (LDH) activity.
To measure IL-1β concentrations in the cell-free supernatants the Human IL-1 beta/IL-1F2 DuoSet enzyme-linked immunosorbent assay (ELISA) from R&D Systems (Cat #DY201) was used according to the supplier's instructions. In parallel, LDH activity was measured to test for cell viability at the end of the cell culture experiments, using the CytoTox 96® Non-Radioactive Cytotoxicity Assay (Promega, Madison, WI, United States; Cat #G1780) according to the supplier's instructions.
Results obtained in the BzATP-induced IL-1β release experiments were analyzed using SPSS (Version 27, IBM, Armonk, NY, United States). The data were analyzed first by the Friedman test followed by the Wilcoxon signed-rank test. […] The number (n) of individual experiments is indicated in the Figures and refers to independent experiments, which were performed on different days with different cell passages.

[2] = in vitro; details: BALB/c, mouse, pooled mouse plasma
[3] = molecular target: T1, α9 nAChR (Homo sapiens, UniProt Q9UGM1); details: for EC50: read-out: α9 EC50
T1 sequence (Q9UGM1 26-479 limits assumed): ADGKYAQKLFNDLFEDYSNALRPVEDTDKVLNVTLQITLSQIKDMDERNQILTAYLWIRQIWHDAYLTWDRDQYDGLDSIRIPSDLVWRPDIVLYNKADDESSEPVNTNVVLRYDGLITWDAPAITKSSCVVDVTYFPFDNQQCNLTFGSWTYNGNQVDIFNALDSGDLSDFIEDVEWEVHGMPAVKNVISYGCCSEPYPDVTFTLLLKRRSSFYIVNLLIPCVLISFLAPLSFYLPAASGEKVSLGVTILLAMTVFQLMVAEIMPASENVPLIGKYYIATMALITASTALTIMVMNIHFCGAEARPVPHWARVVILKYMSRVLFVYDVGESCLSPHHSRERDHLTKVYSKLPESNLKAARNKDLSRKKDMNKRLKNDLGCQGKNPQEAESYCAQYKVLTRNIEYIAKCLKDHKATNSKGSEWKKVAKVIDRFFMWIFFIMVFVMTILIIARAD

[4] = molecular target: T1, α9 nAChR; assay: cell-based
[5] = molecular target: human α7 nAChR (Homo sapiens, UniProt P36544)
Sequence of human α7 nAChR (P36544 23-502): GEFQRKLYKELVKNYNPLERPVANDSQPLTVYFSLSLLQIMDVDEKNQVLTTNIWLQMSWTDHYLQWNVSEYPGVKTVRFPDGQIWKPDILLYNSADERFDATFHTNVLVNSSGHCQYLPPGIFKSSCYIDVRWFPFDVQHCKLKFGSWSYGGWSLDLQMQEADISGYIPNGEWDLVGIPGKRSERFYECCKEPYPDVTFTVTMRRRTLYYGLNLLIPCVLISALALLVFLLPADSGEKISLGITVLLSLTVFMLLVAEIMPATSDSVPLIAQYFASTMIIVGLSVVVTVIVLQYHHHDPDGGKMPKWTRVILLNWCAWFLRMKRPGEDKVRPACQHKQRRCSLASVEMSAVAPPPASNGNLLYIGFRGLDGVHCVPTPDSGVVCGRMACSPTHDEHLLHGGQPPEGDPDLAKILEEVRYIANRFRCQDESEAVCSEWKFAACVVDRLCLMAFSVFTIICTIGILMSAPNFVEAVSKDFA

[6] = molecular target: T2, α9α10 nAChR (Homo sapiens, UniProt Q9GZZ6+Q9UGM1); assay: Inhibition of ACh-evoked currents, co-application with 60 μM ACh, oocytes expressing α9α10; format: cell-based; details: co-applied with 60 μM ACh; unit not printed for these values (α9 values in μM); read-out: IC50 as antagonist on α9α10
T2 construct: expressed in transfected cells; host or cells: Xenopus laevis oocytes injected with in vitro transcribed RNA
T2 sequence (Q9UGM1 26-479 limits assumed): as the sequence (Q9UGM1 26-479 limits assumed) above
T2 sequence (Q9GZZ6 25-450): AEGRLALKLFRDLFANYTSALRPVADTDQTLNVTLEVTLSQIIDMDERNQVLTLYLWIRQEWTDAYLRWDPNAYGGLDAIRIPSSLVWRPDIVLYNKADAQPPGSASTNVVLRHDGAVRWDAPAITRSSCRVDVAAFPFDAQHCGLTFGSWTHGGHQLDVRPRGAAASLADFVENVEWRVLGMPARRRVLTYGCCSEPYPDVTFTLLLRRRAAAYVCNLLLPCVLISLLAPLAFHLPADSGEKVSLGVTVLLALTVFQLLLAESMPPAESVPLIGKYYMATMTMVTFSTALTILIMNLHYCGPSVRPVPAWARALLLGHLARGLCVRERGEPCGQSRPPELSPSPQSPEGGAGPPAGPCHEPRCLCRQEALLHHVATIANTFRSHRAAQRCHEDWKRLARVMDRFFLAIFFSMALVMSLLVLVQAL
Protocol: (§1) FIGS. 13A-13B show inhibition concentration-response studies for chiral diMPP compounds (2R)PA-diMPP (8) and (2S)PA-diMPP (9), identified as α9 and α9α10 antagonists.
(§2) Experimental responses were measured relative to the preceding ACh control response. […] The transition from agonist to antagonist behavior in α7 to α9* nAChRs indicates a slightly bigger dialkyl tail on nitrogen, or perhaps more importantly, the asymmetry of the groups and potential for multiple rotamers is important for α9 agonism, while chirality is more important for α7 selectivity.
(§3) Two-electrode voltage-clamp experiments were conducted using OpusXpress 6000A (Molecular Devices, Union City CA, USA). Both the voltage and current electrodes were filled with 3 M KCl. Oocytes were voltage-clamped at −60 mV at room temperature. The oocytes were perfused with Ringer's solution (115 mM NaCl, 2.5 mM KCl, 1.8 mM CaCl2), 10 mM HEPES, 1 μM atropine, pH 7.2) at 2 ml/min. […] Drug applications were 12 s in duration followed by 181 s washout periods.

[7] = molecular target: T1, α9 nAChR; assay: Inhibition of ACh-evoked currents, co-application with 60 μM ACh, oocytes expressing α9; format: cell-based; design: expressed in transfected cells; host or cells: Xenopus laevis oocytes injected with in vitro transcribed RNA; details: co-applied with 60 μM ACh; read-out: IC50 as antagonist on α9
Protocol: as §1, §2, §3

[8] = tested on: CFA-induced inflammatory pain in mice; details: previously reported α9 nAChR agonist; cited from earlier work
[9] = Table 4, chiral EMPPs and diMPPs
[10] = read-out: α7 EC50, Table 2, unit inferred
[11] = read-out: α7 EC50, Table 4, unit inferred

CC[N+]1(C)CCN(c2ccc(C#N)cc2)C[C@H]1C (stereo partly drawn) [(2R)r/s-pCN-EMPP]
inhibitory effect on IL-1β release at the lowest concentration tested ([1]; 1 nM): moderate but significant inhibitory effects
inhibition of BzATP-induced release of IL-1β [1]: significantly inhibited

CCN(CC)CCOC(=O)c1ccc(N)cc1 [procaine]
half-life at 1 μM [2]: < 5 min

CC[N+]1(C)CCN(c2ccc(NC(=O)c3ccc(C)cn3)cc2)CC1 [V-h]
α9 Imax ([3]; Table 3, reverse amide GATs): 1.00 ± 0.08
EC50 [4]: 0.44 ± 0.14 µM
EC50 [5]: 315 µM
α7 Imax ([5]; Table 3): 0.266 ± 0.33

Cc1cccc(NC(=O)c2ccc(N3CC[N+](C)(C)[C@H](C)C3)cc2)n1 [IV-f]
IC50 [6]: 0.406 ± 0.15 µM
receptor selectivity α9 vs α7 [3]: selective for α7
type of activity at α9 / α9* nAChR [3]: antagonists of the alpha 9 nicotinic acetylcholine receptor
α9 Imax ([3]; Table 2, chiral compounds): 0.0065 ± 0.72
α9 Imax [3, 9]: 0.0065 ± 0.72
type of activity at α9 / α9* nAChR ([3]; listed as (2R)PA-diMPP): lost nearly all agonist activity for α9* receptors
inhibition of BzATP-induced release of IL-1β [1]: significantly inhibited
antagonism of the effect of ACh on IL-1β release ([1]; all concentrations investigated (1 nM to 100 μM), ACh 10 μM): significantly antagonized the effect of ACh
α7 Imax ([5]; Table 2, chiral compounds): 0.426 ± 0.021
α7 Imax ([5]; Table 4): 0.426 ± 0.02
EC50 [5, 10]: 3.06 ± 0.38 µM
EC50 [5, 11]: 3.06 ± 0.38 µM
IC50 [7]: 0.21 ± 0.06 µM

CC[N+]1(C)CCN(c2ccc(C(=O)Nc3cccc(C)n3)cc2)C[C@@H]1C (stereo partly drawn) [IV-b]
receptor selectivity α9 vs α7 [3]: selective towards α9
α9 Imax ([3]; Table 2, chiral compounds): 0.670 ± 0.02
α9 Imax [3, 9]: 0.670 ± 0.02
EC50 ([3]; Table 2, unit inferred): 2.09 ± 0.63 µM
EC50 ([3]; Table 4, unit inferred): 2.09 ± 0.63 µM
inhibition of BzATP-induced release of IL-1β [1]: significantly inhibited
α7 Imax ([5]; Table 2, chiral compounds): 0.238 ± 0.004
α7 Imax ([5]; Table 4): 0.24 ± 0.004
EC50 [5, 10]: 7.1 ± 0.49 µM
EC50 [5, 11]: 7.1 ± 0.49 µM

CC[N+]1(CC)CCN(c2ccc(NC(=O)c3cccc(C)n3)cc2)CC1.[I-] [Compound I, 1,1-Diethyl-4-(4-(6-methylpicolinamido)phenyl)piperazin-1-ium iodide]
α9 Imax ([3]; Table 1, peak current, relative to ACh maximum): 1.24 ± 0.04
α9 Imax ([3]; Table 3, reverse amide GATs): 1.01 ± 0.03
EC50 ([3]; Table 1, unit not given (0.23 as 230 nM)): 1.63 ± 0.2 µM
EC50 ([3]; Table 3, unit not printed (text gives 0.086 as 86 nM)): 0.23 ± 0.034 µM
α7 Imax ([5]; Table 1, net charge, relative to ACh maximum): 0.14 ± 0.004
α7 Imax ([5]; Table 3): 0.41 ± 0.025
EC50 ([5]; read-out: α7 EC50, Table 1, unit inferred): 4.68 ± 0.54 µM
EC50 ([5]; read-out: α7 EC50, Table 3, unit inferred): 78.3 ± 11.3 µM

CC[N+]1(CC)CCN(c2ccc(C#N)cc2)CC1 [pCN-diEPP]
effective duration against CFA-induced pain like behaviors [8]: 3 to 6 h

CC[N+]1(C)CCN(c2ccc(C#N)cc2)CC1C [(2S)r/s-pCN-EMPP]
inhibition of BzATP-induced release of IL-1β [1]: significantly inhibited
EC50 [5]: 26.6 ± 9.6 µM

CC[N+]1(C)CCN(c2ccc(NC(=O)c3ccc4ccccc4n3)cc2)CC1 [V-f]
α9 Imax ([3]; Table 3, reverse amide GATs): 1.008 ± 0.048
EC50 [4]: 0.157 µM
EC50 [5]: 2.03 ± 0.54 µM
α7 Imax ([5]; Table 3): 0.124 ± 0.009
